Paper PMC9332470, “Production and Selection of Antibody–Antigen Pairs for the Development of Immunoenzyme Assay and Lateral Flow Immunoassay Methods for Carbofuran and Its Analogues” (Biosensors, 2022)
Values after ≈ are worked out from the molar mass of the structure shown.

Experiments:
[1] = test system: mAb 13C8; test: indirect competitive ELISA (icELISA) with mAb 13C8; format: binding, BALB/c mice; settings: for IC50 (ELISA): optimized ELISA, mAb 13C8 0.03 μg/mL, coating antigen 0.1 μg/mL, given as MDA-BSA and MDA-OVA, unit from text
Experimental: (§1) Microplates were coated with coating antigens. Different concentrations of the standard (50 µL) and the mAb (50 µL) were added to each well, and the plates were incubated for 20 min at 37 °C. The plates were washed with PBS (0.01 M, containing 0.05% (v/v) Triton X-100), 100 μL of goat anti-mouse IgG-HRP conjugate solution was added to each well, and the plates were incubated for 20 min at 37 °C. After the plates were washed with PBS (0.01 M, containing 0.05% Triton X-100, v/v), 100 µL of TMB single-component substrate solution was added to each well, followed by incubation at 37 °C for 10 min. Finally, the reaction was terminated, and the absorbance at 450 nm was measured by a microplate reader.
(§2) Taking the logarithm of the carbofuran concentration as the abscissa and (B/B0)% as the ordinate, the standard curves for ELISA and QD-LFIA were obtained based on the Morgan–Mercer–Flodin (MMF) model, which were fitted by CurveExpert 1.4.0 software (https://www.curveexpert.net, accessed on 15 July 2022). For the ELISA method, B and B0 are the absorbance of the sample well and blank well, respectively. For the QD-LFIA method, B and B0 are the T/C (fluorescence intensity of the test line/fluorescence intensity of the control line) of the sample and blank control, respectively.
(§3) The inhibition ratio (I%) was calculated as (B0-B)/B0 × 100%. IC50 is the concentration of the carbofuran at an I% of 50%, and the limit of detection (LOD) was determined as the concentration showing 10% of inhibition.
(§4) The cross-reactivities (CRs) of benfuracarb, carbosulfan, 3-hydroxy-carbofuran, metolcarb, carbaryl, isoprocarb and aldicarb with carbofuran were assessed by ELISA and QD-LFIA. CR was calculated as CR (%) = [IC50 (carbofuran)/IC50 (analogues)] × 100%.
The microplate was coated with the coating antigens DDB-BSA (1 µg/mL), DDB-OVA (0.5 µg/mL), MDA-BSA (0.2 µg/mL) and MDA-OVA (0.1 µg/mL), and the concentration of mAb 13C8 was 0.03 µg/mL. Carbofuran standards (0, 0.05, 0.15, 0.45, 1.35 and 4.05 ng/mL) were detected to obtain a standard curve, and the IC50 was calculated. […] In the icELISA used in this study, free antigen (carbofuran) in solution competed with the coating antigen on the microplate for antibody 13C8; therefore, the IC50 value was negatively correlated with the antibody-binding ability of free antigen competing with coating antigens.
The ELISA method was developed with the antibody 13C8–antigen MDA-BSA pair. Under the optimized coating antigen concentration (0.1 μg/mL), HRP-conjugated goat anti-mouse IgG concentration (1 μg/mL), antibody concentration (0.03 μg/mL) and working buffer parameters (5 mM PBS at pH 7.4), a standard curve was obtained with the concentration of carbofuran on the abscissa and the inhibition ratio (B/B0) on the ordinate.

[2] = test system: mAb 12H5; test: ELISA reactivity of hybridoma supernatant, cell line 12H5; format: binding, BALB/c mice; settings: cell line 12H5 supernatant, 50 ng/mL pesticide
Experimental: (§5) The desired antibodies with the highest affinity were screened by icELISA with carbofuran as a competitive compound, and hybridoma cells were cloned by the limited dilution method. Then, the selected hybridoma cells were injected into mice for ascites production. Finally, the mAbs were purified by (NH4)2SO4 with saturation of 50% and further purified by an SPA column.
as §1, §3
(§6) Then, the reactivity of the supernatant of the six cell lines to 50 ng/mL carbofuran, benfuracarb and carbosulfan was assessed by ELISA, and the results are shown in Table 1. […] Because 13C8 had the highest reactivity with carbofuran, benfuracarb and carbosulfan among the six cell lines, it was injected into mice for ascites production, and the mAbs were purified by a protein A column for further experiments.

[3] = test system: mAb 6D6; test: ELISA reactivity of hybridoma supernatant, cell line 6D6; format: binding, BALB/c mice; settings: cell line 6D6 supernatant, 50 ng/mL pesticide
Experimental: as §5, §1, §3, §6

[4] = test system: broad-specificity mAb with the immunogen BFNB-BSA; settings: cited from earlier work
[5] = test system: mAb 13C8; test: ELISA reactivity of hybridoma supernatant, cell line 13C8; format: binding, BALB/c mice; settings: cell line 13C8 supernatant, 50 ng/mL pesticide
Experimental: as §5, §1, §3, §6

[6] = test system: mAb 18G3; test: ELISA reactivity of hybridoma supernatant, cell line 18G3; format: binding, BALB/c mice; settings: cell line 18G3 supernatant, 50 ng/mL pesticide
Experimental: as §5, §1, §3, §6

[7] = test system: mAb 12D6; test: ELISA reactivity of hybridoma supernatant, cell line 12D6; format: binding, BALB/c mice; settings: cell line 12D6 supernatant, 50 ng/mL pesticide
Experimental: as §5, §1, §3, §6

[8] = test system: mAb 7F9; test: ELISA reactivity of hybridoma supernatant, cell line 7F9; format: binding, BALB/c mice; settings: cell line 7F9 supernatant, 50 ng/mL pesticide
Experimental: as §5, §1, §3, §6

[9] = test system: mAb 13C8; test: quantum dot-based LFIA (QD-LFIA) with mAb 13C8; format: binding, BALB/c mice; settings: for IC50 (QD-LFIA): optimized QD-LFIA, mAb 13C8-QD, T line antigen 30 μg/mL, given as MDA-BSA and MDA-OVA
Experimental: One milliliter of QDs was added to 9 mL of MES (0.054 M at pH 6.0) and centrifuged at 10,956× g for 20 min. Then, the precipitate was resuspended in 10 mL of MES (0.05 M at pH 6.0). After dispersion by ultrasonication for 2 min, EDC (20 mg) and NHS (20 mg) were added, and the reaction mixture was incubated for 30 min, followed by centrifugation at 10,956× g for 20 min. The precipitate was resuspended in 10 mL of MES (0.05 M at pH 6.0). Then, 1 mg of the mAb dissolved in 10 mL MES (0.027 M at pH 8.0) was added to the QD mixture and shaken at 25 °C and 180 rpm for 90 min. After the reaction, 5 mL of MES (0.054 M at pH 6.0 containing 1.6% BSA, w/v) was added, and the mixture was shaken at 25 °C and 180 rpm for 40 min, followed by centrifugation at 10,956× g for 20 min. The precipitate was resuspended in 10 mL of PB (0.01 M at pH 6.0, containing 5% casein, 1% glucose, 1.5% alanine and 0.05% NaN3, w/v) and dispersed by ultrasonication for 2 min.
The conjugate pad (6 mm × 300 mm) was pretreated with PBS (containing 0.5% Triton X-100, 0.5% alanine and 0.05% NaN3, w/v). Then, 1 mL of the mAb–QD conjugate was sprayed onto the pretreated conjugate pad at a flow rate of 10 μL/cm, and the pad was dried at 37 °C for 2 h. Other applied protocols were similar to those mentioned above.
as §2, §3, §4
Then, to prepare QD-LFIA test strips, DDB-BSA (40 μg/mL), DDB-OVA (50 μg/mL), MDA-BSA (35 μg/mL) and MDA-OVA (30 μg/mL) were dispensed onto the NC membrane, and antibody 13C8 was conjugated to the QDs. Carbofuran standards (0, 0.05, 0.15, 0.45, 1.35 and 4.05 ng/mL) were detected to obtain a standard curve, and the IC50 was calculated. […] In LFIA, carbofuran in solution competed with the coating antigen on the NC membrane for antibody 13C8 conjugated to the QDs.
A standard curve was developed with the inhibition ratio (B/B0) versus the logarithm of the concentration of carbofuran.

[10] = test system: mAb with the immunogen 3-succinyl-carbofuran-KLH; settings: cited from earlier work

In the case of `CCCCN(CCCC)SN(C)C(=O)Oc1cccc2c1OC(C)(C)C2` [carbosulfan], the “IC50 (ELISA)” value [1] is reported as 0.00024 ± 4e-05 µg/mL (≈ 0.000631 µM), the “Reactivity of mAb (I%)” value [2] is reported as 67% and the “Reactivity of mAb (I%)” value [3] is reported as 61%. For the same compound, the “CR(%) (ic-ELISA)” value [4] was 7.7%, the “IC50 (ic-ELISA)” value [4] was 0.1158 µg/mL (≈ 0.304 µM) and the “Reactivity of mAb (I%)” value [5] was 90%. For the same compound, the “Reactivity of mAb (I%)” value [6] was 71%, the “Reactivity of mAb (I%)” value [7] was 46% and the “Reactivity of mAb (I%)” value [8] was 65%. The “IC50 (QD-LFIA)” value [9] was 0.00084 ± 9e-05 µg/mL (≈ 0.00221 µM).
In the case of `CNC(=O)Oc1cccc(C)c1` [metolcarb], the “IC50 (ELISA)” value [1] is reported as greater than 0.02 µg/mL and the “IC50 (QD-LFIA)” value [9] is reported as greater than 0.1 µg/mL.
For `CNC(=O)Oc1ccccc1C(C)C` [isoprocarb], the “CR (%) (ELISA)” value ([1]; CR = IC50(carbofuran)/IC50(analogue) x 100%, optimized ELISA with mAb 13C8) is given as less than 1%, the “IC50 (ELISA)” value [1] is given as greater than 0.02 µg/mL and the “CR(%) (ic-ELISA)” value [4] is given as 50.7%. The “IC50 (ic-ELISA)” value [4] was 0.01768 µg/mL (≈ 0.0915 µM), the “CR (%) (QD-LFIA)” value ([9]; CR = IC50(carbofuran)/IC50(analogue) x 100%, QD-LFIA with mAb 13C8) was less than 1% and the “IC50 (QD-LFIA)” value [9] was greater than 0.1 µg/mL.
For `CNC(=O)Oc1ccccc1OC(C)C` [propoxur], the “CR(%) (ic-ELISA)” value [4] is listed as 25.8% and the “IC50 (ic-ELISA)” value [4] is listed as 0.03475 µg/mL (≈ 0.166 µM).
For `CNC(=O)Oc1cccc2ccccc12` [carbaryl], the “IC50 (ELISA)” value [1] is listed as greater than 0.02 µg/mL, the “CR(%) (ic-ELISA)” value [4] is listed as 8.5% and the “IC50 (ic-ELISA)” value [4] is listed as 0.10559 µg/mL (≈ 0.525 µM). For the same compound, the “IC50 (QD-LFIA)” value [9] was greater than 0.1 µg/mL.
In the case of `CNC(=O)Oc1cccc2c1OC(C)(C)C2O` (centres unmarked) [3-hydroxy-carbofuran], the “IC50 (ELISA)” value [1] is listed as 0.00025 ± 5e-05 µg/mL (≈ 0.00105 µM), the “CR(%) (ic-ELISA)” value [10] is listed as 110.1% and the “IC50 (ic-ELISA)” value [10] is listed as 0.00069 ± 8e-05 µg/mL (≈ 0.00291 µM). The “IC50 (QD-LFIA)” value [9] was 0.00087 ± 6e-05 µg/mL (≈ 0.00367 µM).
In the case of `CNC(=O)O/N=C/C(C)(C)SC` [aldicarb], the “IC50 (ELISA)” value [1] is reported as greater than 0.02 µg/mL and the “IC50 (QD-LFIA)” value [9] is reported as greater than 0.1 µg/mL.
In the case of `CCOC(=O)CCN(SN(C)C(=O)Oc1cccc2c1OC(C)(C)C2)C(C)C` [benfuracarb], the “IC50 (ELISA)” value [1] is reported as 0.00023 ± 3e-05 µg/mL (≈ 0.00056 µM), the “Reactivity of mAb (I%)” value [2] is reported as 70% and the “Reactivity of mAb (I%)” value [3] is reported as 53%. The “Reactivity of mAb (I%)” value [5] was 91%, the “Reactivity of mAb (I%)” value [6] was 76% and the “Reactivity of mAb (I%)” value [7] was 55%. For the same compound, the “Reactivity of mAb (I%)” value [8] was 68% and the “IC50 (QD-LFIA)” value [9] was 0.00081 ± 7e-05 µg/mL (≈ 0.00197 µM).
